According to patent US8048862B2, “Macrocyclic inhibitors of hepatitis C virus replication” (priority 2008, dated 2011):
Like-named read-outs stand apart in the source and are kept apart here.

What was measured:
hepatitis C replicon = hepatitis C replicon EC50; format: cell-based; conditions: Hepatitis C virus
Source text: NS3-NS4 inhibition activity can be determined using known assay methods.

NS3/NS4 complexes = NS3/NS4 complexes (Hepatitis C virus genotype 1a, UniProt P27958); assay: NS3/NS4 inhibition activity (IC50); format: biochemical; conditions: Table 3, read-out: IC50
Chain of NS3/NS4 complexes (P27958 1027-1657): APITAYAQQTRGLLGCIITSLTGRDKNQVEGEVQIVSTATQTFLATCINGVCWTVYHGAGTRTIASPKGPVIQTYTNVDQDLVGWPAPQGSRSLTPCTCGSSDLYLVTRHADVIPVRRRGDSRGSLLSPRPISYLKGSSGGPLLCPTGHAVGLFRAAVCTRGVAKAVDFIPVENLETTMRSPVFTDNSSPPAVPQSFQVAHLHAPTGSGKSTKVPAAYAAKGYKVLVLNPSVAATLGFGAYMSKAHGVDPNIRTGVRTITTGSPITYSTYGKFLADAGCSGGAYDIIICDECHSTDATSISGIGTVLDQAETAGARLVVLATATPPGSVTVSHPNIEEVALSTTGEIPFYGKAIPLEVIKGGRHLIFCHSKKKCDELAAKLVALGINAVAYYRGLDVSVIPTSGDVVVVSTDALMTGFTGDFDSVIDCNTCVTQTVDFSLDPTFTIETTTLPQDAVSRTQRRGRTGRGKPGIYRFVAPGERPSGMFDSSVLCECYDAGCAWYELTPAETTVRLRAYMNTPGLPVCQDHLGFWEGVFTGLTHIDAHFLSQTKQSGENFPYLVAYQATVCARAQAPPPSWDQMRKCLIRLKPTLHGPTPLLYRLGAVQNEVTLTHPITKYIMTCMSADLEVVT
Chain of NS3/NS4 complexes (P27958 1658-1711): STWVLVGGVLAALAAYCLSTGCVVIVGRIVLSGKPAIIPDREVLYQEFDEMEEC
In short: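 Buffer: 50 mM Tris-HCl (pH 7.5), 10 mM DTT, 25 μM NS4A peptide, 0.6 mM LDAO and 15% glycerol. Assays were run at 23 °C with preformed NS3/NS4 complex, and the compound concentration giving inhibition was derived as an IC50.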

[1] = Table 3, hepatitis C replicon, read-out: EC50

Row | SMILES | EC50 (hepatitis C replicon; [1]) | IC50 (NS3/NS4 complexes) | EC50 (hepatitis C replicon)
1 | COc1ccc2c(O[C@@H]3C[C@H]4C(=O)N[C@]5(C(=O)NS(=O)(=O)C6(C)CC6)C[C@H]5/C=C\CCCCC[C@H](NC(=O)OC(C)(C)C)C(=O)N4C3)cc(-c3nc(C(C)C)cs3)nc2c1C [Compound 1078] | < 0.01 µM | < 0.01 µM | 
2 | CC(C)(C)OC(=O)N[C@H]1CCCCC/C=C\[C@@H]2C[C@@]2(C(=O)NS(=O)(=O)C2(C)CC2)NC(=O)[C@@H]2C[C@@H](Oc3nc4ccccc4[nH]3)CN2C1=O [Compound 1079] |  | < 0.01 µM | > 0.1 µM
3 | CCn1c(O[C@@H]2C[C@H]3C(=O)N[C@]4(C(=O)NS(=O)(=O)C5(C)CC5)C[C@H]4CCCCCCC[C@H](NC(=O)OC(C)(C)C)C(=O)N3C2)nc2ccccc21 [Compound 1080] | < 0.01 µM | < 0.01 µM | 
4 | CC(C)(C)OC(=O)N[C@H]1CCCCCCC[C@@H]2C[C@@]2(C(=O)NS(=O)(=O)C2(C)CC2)NC(=O)[C@@H]2C[C@@H](OC(=O)N3Cc4cccc(F)c4C3)CN2C1=O [Compound 1081] | < 0.01 µM | < 0.01 µM | 
5 | CC(C)(C)OC(=O)N[C@H]1CCCCC/C=C\[C@@H]2C[C@@]2(C(=O)NS(=O)(=O)CC(=O)Nc2ccccc2)NC(=O)[C@@H]2C[C@@H](OC(=O)N3Cc4cccc(F)c4C3)CN2C1=O [Compound 1082] |  | < 0.01 µM | > 0.1 µM
6 | CC(C)(C)OC(=O)N[C@H]1CCCCC/C=C\[C@@H]2C[C@@]2(C(=O)NS(=O)(=O)c2ccccc2OCC(N)=O)NC(=O)[C@@H]2C[C@@H](OC(=O)N3Cc4cccc(F)c4C3)CN2C1=O [Compound 1083] | > 0.1 µM | < 0.01 µM | 
7 | CNC(=O)COc1ccccc1S(=O)(=O)NC(=O)[C@@]12C[C@H]1/C=C\CCCCC[C@H](NC(=O)OC(C)(C)C)C(=O)N1C[C@H](OC(=O)N3Cc4cccc(F)c4C3)C[C@H]1C(=O)N2 [Compound 1084] | > 0.1 µM | < 0.01 µM | 
8 | O=C(N[C@H]1CCCCC/C=C\[C@@H]2C[C@@]2(C(=O)NS(=O)(=O)C2CC2)NC(=O)[C@@H]2C[C@@H](OC(=O)N3Cc4cccc(F)c4C3)CN2C1=O)O[C@@H]1C[C@@H]2C[C@@H]2C1 [Compound 1085] | < 0.01 µM | < 0.01 µM | 
9 | CC(C)(C)OC(=O)N[C@H]1CCCCC/C=C\[C@@H]2C[C@@]2(C(=O)NS(=O)(=O)Cc2ccccc2)NC(=O)[C@@H]2C[C@@H](OC(=O)N3Cc4cccc(F)c4C3)CN2C1=O [Compound 1086] | > 0.1 µM | < 0.01 µM | 
10 | CO[C@@H]1C[C@H]2C(=O)N[C@]3(C(=O)NS(=O)(=O)C4(C)CC4)C[C@H]3/C=C\CCCCC[C@H](NC(=O)OC(C)(C)C)C(=O)N2C1 [Compound 1091] | > 0.1 µM | > 0.1 µM | 
11 | CC(C)(C)OC(=O)N[C@H]1CCCCC/C=C\[C@@H]2C[C@@]2(C(=O)NS(=O)(=O)c2ccccc2OCC(N)=O)NC(=O)[C@@H]2C[C@@H](O)CN2C1=O [Compound 1093] | > 0.1 µM | > 0.1 µM | 
12 | CNC(=O)COc1ccccc1S(=O)(=O)NC(=O)[C@@]12C[C@H]1/C=C\CCCCC[C@H](NC(=O)OC(C)(C)C)C(=O)N1C[C@H](O)C[C@H]1C(=O)N2 [Compound 1094] | > 0.1 µM | > 0.1 µM | 
13 | CO[C@@H]1C[C@H]2C(=O)N[C@]3(C(=O)NS(=O)(=O)CC(=O)Nc4ccccc4)C[C@H]3/C=C\CCCCC[C@H](NC(=O)OC(C)(C)C)C(=O)N2C1 [Compound 1099] |  | < 0.01 µM | < 0.01 µM
14 | CC1(S(=O)(=O)NC(=O)[C@@]23C[C@H]2/C=C\CCCCC[C@H](Nc2cc(F)cc(C(F)(F)F)c2)C(=O)N2C[C@H](OC(=O)N4Cc5cccc(F)c5C4)C[C@H]2C(=O)N3)CC1 [Compound 1100] | < 0.01 µM | < 0.01 µM | 
15 | CC1(S(=O)(=O)NC(=O)[C@@]23C[C@H]2/C=C\CCCCC[C@H](Nc2cccc(C(N)=O)c2)C(=O)N2C[C@H](OC(=O)N4Cc5cccc(F)c5C4)C[C@H]2C(=O)N3)CC1 [Compound 1101] | 0.01 to 0.1 µM | < 0.01 µM | 
16 | CC1(S(=O)(=O)NC(=O)[C@@]23C[C@H]2/C=C\CCCCC[C@H](Nc2ccccc2)C(=O)N2C[C@H](OC(=O)N4Cc5cccc(F)c5C4)C[C@H]2C(=O)N3)CC1 [Compound 1102] | < 0.01 µM | < 0.01 µM | 
17 | Cc1cccc(N[C@H]2CCCCC/C=C\[C@@H]3C[C@@]3(C(=O)NS(=O)(=O)C3(C)CC3)NC(=O)[C@@H]3C[C@@H](OC(=O)N4Cc5cccc(F)c5C4)CN3C2=O)c1 [Compound 1103] | < 0.01 µM | < 0.01 µM | 
18 | COc1cccc(N[C@H]2CCCCC/C=C\[C@@H]3C[C@@]3(C(=O)NS(=O)(=O)C3(C)CC3)NC(=O)[C@@H]3C[C@@H](OC(=O)N4Cc5cccc(F)c5C4)CN3C2=O)c1 [Compound 1104] | < 0.01 µM | < 0.01 µM | 

Row | SMILES | EC50 (hepatitis C replicon; [1]) | IC50 (NS3/NS4 complexes) | EC50 (hepatitis C replicon)
19 | Cc1cc(F)cc(N[C@H]2CCCCC/C=C\[C@@H]3C[C@@]3(C(=O)NS(=O)(=O)C3(C)CC3)NC(=O)[C@@H]3C[C@@H](OC(=O)N4Cc5cccc(F)c5C4)CN3C2=O)c1 [Compound 1105] | < 0.01 µM | < 0.01 µM | 
20 | CN(C)C(=O)c1cccc(N[C@H]2CCCCC/C=C\[C@@H]3C[C@@]3(C(=O)NS(=O)(=O)C3(C)CC3)NC(=O)[C@@H]3C[C@@H](OC(=O)N4Cc5cccc(F)c5C4)CN3C2=O)c1 [Compound 1106] | 0.01 to 0.1 µM | < 0.01 µM | 
21 | CC1(S(=O)(=O)NC(=O)[C@@]23C[C@H]2/C=C\CCCCC[C@H](Nc2ccc(F)c(F)c2)C(=O)N2C[C@H](OC(=O)N4Cc5cccc(F)c5C4)C[C@H]2C(=O)N3)CC1 [Compound 1107] | 0.01 to 0.1 µM | < 0.01 µM | 
22 | CC1(S(=O)(=O)NC(=O)[C@@]23C[C@H]2/C=C\CCCCC[C@H](Nc2cc(F)c(F)c(F)c2)C(=O)N2C[C@H](OC(=O)N4Cc5cccc(F)c5C4)C[C@H]2C(=O)N3)CC1 [Compound 1108] | 0.01 to 0.1 µM | < 0.01 µM | 
23 | CC1(S(=O)(=O)NC(=O)[C@@]23C[C@H]2/C=C\CCCCC[C@H](Nc2ccc(C#N)cc2)C(=O)N2C[C@H](OC(=O)N4Cc5cccc(F)c5C4)C[C@H]2C(=O)N3)CC1 [Compound 1109] | 0.01 to 0.1 µM | < 0.01 µM | 
24 | CC(=O)Nc1cccc(N[C@H]2CCCCC/C=C\[C@@H]3C[C@@]3(C(=O)NS(=O)(=O)C3(C)CC3)NC(=O)[C@@H]3C[C@@H](OC(=O)N4Cc5cccc(F)c5C4)CN3C2=O)c1 [Compound 1110] | 0.01 to 0.1 µM | < 0.01 µM | 
25 | CC1(S(=O)(=O)NC(=O)[C@@]23C[C@H]2/C=C\CCCCC[C@H](Nc2ccc(F)cc2)C(=O)N2C[C@H](OC(=O)N4Cc5cccc(F)c5C4)C[C@H]2C(=O)N3)CC1 [Compound 1111] | 0.01 to 0.1 µM | < 0.01 µM | 
26 | CNC(=O)c1cccc(N[C@H]2CCCCC/C=C\[C@@H]3C[C@@]3(C(=O)NS(=O)(=O)C3(C)CC3)NC(=O)[C@@H]3C[C@@H](OC(=O)N4Cc5cccc(F)c5C4)CN3C2=O)c1 [Compound 1112] | > 0.1 µM | < 0.01 µM | 
27 | CC1(S(=O)(=O)NC(=O)[C@@]23C[C@H]2/C=C\CCCCC[C@H](Nc2cccc(C#N)c2)C(=O)N2C[C@H](OC(=O)N4Cc5cccc(F)c5C4)C[C@H]2C(=O)N3)CC1 [Compound 1113] | 0.01 to 0.1 µM | < 0.01 µM | 
28 | Cc1ccccc1N[C@H]1CCCCC/C=C\[C@@H]2C[C@@]2(C(=O)NS(=O)(=O)C2(C)CC2)NC(=O)[C@@H]2C[C@@H](OC(=O)N3Cc4cccc(F)c4C3)CN2C1=O [Compound 1114] | 0.01 to 0.1 µM | < 0.01 µM | 
29 | CC1(S(=O)(=O)NC(=O)[C@@]23C[C@H]2/C=C\CCCCC[C@H](Nc2cccc(OC(F)(F)F)c2)C(=O)N2C[C@H](OC(=O)N4Cc5cccc(F)c5C4)C[C@H]2C(=O)N3)CC1 [Compound 1115] | < 0.01 µM | < 0.01 µM | 
30 | CC1(S(=O)(=O)NC(=O)[C@@]23C[C@H]2/C=C\CCCCC[C@H](Nc2cccc(C(F)(F)F)c2)C(=O)N2C[C@H](OC(=O)N4Cc5cccc(F)c5C4)C[C@H]2C(=O)N3)CC1 [Compound 1116] | < 0.01 µM | < 0.01 µM | 
31 | CC1(S(=O)(=O)NC(=O)[C@@]23C[C@H]2/C=C\CCCCC[C@H](Nc2cccc(F)c2)C(=O)N2C[C@H](OC(=O)N4Cc5cccc(F)c5C4)C[C@H]2C(=O)N3)CC1 [Compound 1117] | 0.01 to 0.1 µM | < 0.01 µM | 
32 | CC1(S(=O)(=O)NC(=O)[C@@]23C[C@H]2/C=C\CCCCC[C@H](Nc2ccc(C(F)(F)F)cc2)C(=O)N2C[C@H](OC(=O)N4Cc5cccc(F)c5C4)C[C@H]2C(=O)N3)CC1 [Compound 1118] | > 0.1 µM | < 0.01 µM | 
33 | CC1(S(=O)(=O)NC(=O)[C@@]23C[C@H]2/C=C\CCCCC[C@H](Nc2ccc(OC(F)(F)F)cc2)C(=O)N2C[C@H](OC(=O)N4Cc5cccc(F)c5C4)C[C@H]2C(=O)N3)CC1 [Compound 1119] | 0.01 to 0.1 µM | < 0.01 µM | 
34 | CC1(S(=O)(=O)NC(=O)[C@@]23C[C@H]2/C=C\CCCCC[C@H](Nc2ccc(F)c(C(F)(F)F)c2)C(=O)N2C[C@H](OC(=O)N4Cc5cccc(F)c5C4)C[C@H]2C(=O)N3)CC1 [Compound 1120] | < 0.01 µM | < 0.01 µM | 
35 | CC(=O)Nc1ccc(N[C@H]2CCCCC/C=C\[C@@H]3C[C@@]3(C(=O)NS(=O)(=O)C3(C)CC3)NC(=O)[C@@H]3C[C@@H](OC(=O)N4Cc5cccc(F)c5C4)CN3C2=O)cc1 [Compound 1121] | 0.01 to 0.1 µM | < 0.01 µM | 
